Results as given in PMC8533149 (Biomolecules, 2021).

Tested on: HIV-1 LTR-III G-quadruplex (FAM/TAMRA-labeled LTR-III)
Assay: FRET melting assay, LTR-III G4
Assay type: binding
Conditions: Table S1 primary screening, ligand:ODN 50:1, singlicate
Description: To evaluate stabilizing properties of the ligands in a complex with oligodeoxyribonucleotides (ODNs) melting with fluorescence registration was used. ODN (0.5 μM) (Table 1), labeled with 6-carboxyfluorescein (FAM) and 6-carboxytetramethylrhodamine (TAMRA) at the 5′- and 3′-end, respectively, were folded in lithium cacodylate buffer (10 mM, pH 7.4) with 100 mM KCl by heating at 95 °C for 5 min and gradually cooling to r.t. GFP chromophore analogs (5 mM solution in DMSO) were diluted with the same buffer to the final concentration of 25 μM and mixed with an equal volume of 0.5 μM ODN solution resulting in a molar ratio of 50:1 (total volume was 50 μL). For the titration experiments molar ratios of 20:1 and 2:1 were used. Samples were analyzed using DTprime qPCR system (DNA-Technology LLC, Moscow, Russia). Fluorescence was registered by detection of FAM emission at 520 nm upon excitation at 495 nm in the temperature range of 30–95 °C with 1 °C/min gradient. Tm was determined using the instrument software and ΔTm was calculated relative to ODN Tm in a buffer solution containing 0.25% (v/v) DMSO. The primary and secondary screening were carried out in singlicate and triplicate, respectively.

SMILES | LTR-III ΔTm
CCn1nnc2c(Nc3ccccc3)cccc2c1=O [M 958A] | -0.7 °C
CCCC1=NC(=C(N)c2ccccc2)C(=O)N1 [M 1862] | -1.1 °C
COc1cc(O)ccc1/C=C1N=C(/C=C/c2cccs2)N(C)C\1=O [N 1039] | 1.1 °C
COc1ccc(C=C2N=C(C(C)(C)C)N(C)C2=O)cc1 [M 440] | -0.1 °C
CCOC(=O)CN1C(=O)C(=Cc2ccccc2)N=C1C [SA 148] | -1.3 °C
CC(=O)C1=NC(=Cc2ccc(O)cc2)C(=O)N1C [X 18] | 0.6 °C
COc1ccc(C=C2N=C(C)N(CCNC(=O)OC(C)(C)C)C2=O)cc1OC [M 2022e] | 0 °C
Cc1ccc(C(O)=CC2=NC(=Cc3ccc(O)cc3)C(=O)N2C)cc1 [N 154] | -0.1 °C
CCC(=O)C1=NC(=Cc2ccc(O)cc2)C(=O)N1C [M 2372в] | -0.2 °C
CCC1=NC(=Cc2ccc(OC)cc2)C(=O)N1C [M 497a2] | -0.4 °C
CCC(=O)NC(=Cc1c[nH]c2cccc(C)c12)C(=O)NC [M 1979] | -0.1 °C
CN1C=NC(=Cc2ccc(O)cc2)C1=O [GA 02] | -0.4 °C
CC1=NC(=Cc2cccs2)C(=O)N1C [N 1021] | 0.3 °C
CC1=NC(=Cc2ccc(O)cc2)C(=O)N(O)C1=O [M 800] | -0.2 °C
CCC1=NC(=Cc2ccc(O)cc2)C(=O)N1C [GA 04] | -0.1 °C
CCCC1=N/C(=C\c2ccncc2)C(=O)N1C [M 2237] | -0.3 °C
CC(C)OC(=O)c1noc(C(=O)NC2CCCCC2)c1-c1cccs1 [AL 25] | -0.1 °C
C[C@H](CS)C(=O)N1CCC[C@H]1C(=O)O [SA 333] | -0.4 °C
COc1ccc(C=C2N=C(C=C(O)c3ccc(C)cc3)N(C)C2=O)cc1 [SV 29] | -0.2 °C
CC1=NC(=Cc2ccc(N3CCCC3)cc2)C(=O)N1C [N 704] | -0.2 °C
CN1C(=O)C(=Cc2ccc(O)cc2)N=C1C=Cc1ccc2cc(N(C)C)ccc2c1 [N 861] | 0 °C
CN1C(=O)C(=Cc2ccc(O)cc2)N=C1C=Cc1cc(Br)c(O)c(Br)c1 [ccA 12] | 0.2 °C
COc1ccc(C=CC2=NC(=Cc3cc4cc(OC)ccc4cc3OC)C(=O)N2C)cc1 [AI 126] | 1.6 °C
CC1=NC(=Cc2ccc(C#N)cc2)C(=O)N1C [SA 433] | -0.4 °C

SMILES | LTR-III ΔTm
CN1C(=O)C(=Cc2ccncc2)N=C1C=Cc1ccncc1 [N 768] | 0.9 °C
CC1=NC(=Cc2ccc(N(C)C)cc2)C(=O)N1CCNC(=O)OC(C)(C)C [M 2022a] | -0.2 °C
CC1=NC(=Cc2ccc([N+](=O)[O-])cc2)C(=O)N1Cc1ccccc1 [ZS 143] | -0.9 °C
CN1C(=O)C(=Cc2ccc(O)cc2)N=C1Cc1ccccc1 [GFP-2-Bn] | -1.5 °C
Br.CC1=NC(=Cc2ccc(N(C)C)cc2)C(=O)N1CCN [M 1668] | 0.2 °C
CNC(=O)c1cc(/C=C2N=C(/C=C/c3cccs3)N(C)C\2=O)ccc1O [ccD 1] | 0.7 °C
CCCC1=NC(=Cc2ccc(O[Si](c3ccccc3)(c3ccccc3)C(C)(C)C)cc2)C(=O)N1C [M 1550] | -0.1 °C
COc1cc(O)cc(OC)c1C=C1N=C(C=Cc2cc(Cl)nc(Cl)c2)N(C)C1=O [N 973] | 2.3 °C
CC(C)OC(=O)c1noc(C(=O)NCc2ccccc2)c1-c1ccccc1F [SA 331E] | -0.9 °C
COC(=O)c1noc(C(=O)N2CCOCC2)c1-c1ccc(OC)cc1 [SA 561E] | -0.7 °C
CCCC1=NC(=C(NB(F)F)c2ccccc2)C(=O)N1 [M 1878.1] | -1.5 °C
CN1C(=O)C(=Cc2cc(Br)c(O)c(Br)c2)N=C1C=Cc1ccncc1 [N 848.1] | -1.8 °C
CC(=O)NC(=Cc1ccc(O)cc1)C(=O)NO [SV 7] | 0 °C
CCN(CC)c1ccc(C=C2N=C(C)N(CCNC(=O)OC(C)(C)C)C2=O)cc1 [M 2026c] | 0.2 °C
CC1=NC(=Cc2ccc3cc(N4CCCC4)ccc3c2)C(=O)N1C [N 555.3] | 0.7 °C
CC(=O)Oc1ccc(C=C2N=C(C)NC2=O)cc1 [X 13] | -0.8 °C
CC1=NC(=Cc2cccc(F)c2O)C(=O)N1C [N 781] | 0 °C
CC(C)(C)[Si](Oc1ccc(C=CC=O)cc1)(c1ccccc1)c1ccccc1 [M 1373.2] | -0.5 °C
COc1cc(O)ccc1C=C1N=C(c2cccs2)N(C)C1=O [SH 016.3B] | 0.9 °C
CC(C)(C)[Si](Oc1ccc(/C=C/CO)cc1)(c1ccccc1)c1ccccc1 [M 1359] | 0.1 °C
CCOC(=O)c1noc(=O)c(O)c1-c1ccc(OC)cc1 [SA 562B] | -1 °C
CC(=O)Oc1ccc(C=C2N=C(C=Cc3ccncc3)N(C)C2=O)cc1 [M 1009B] | 0.5 °C
CC1=NC(=Cc2ccc3c(c2)CCN3)C(=O)N1C [N 652.3] | 0.3 °C
CN1C(=O)C(=Cc2ccc(O)cc2)N=C1C=Cc1cccs1 [ccA 19] | -0.1 °C

SMILES | LTR-III ΔTm
COc1ccc(C=C2N=C(Nc3ccc(C#N)cc3)N(C)C2=O)cc1 [SA 179] | 0.7 °C
CNC(=O)C(=Cc1ccccc1)N=[N+]=[N-] [N 830b] | -0.2 °C
CN1C(=O)/C(=C/c2ccc(O)cc2)N=C1/C=C/c1ccc(O)cc1 [ccA 2] | 0.4 °C
CC1=NC(=Cc2ccncc2)C(=O)N1CC(=O)O [ZS 69] | -0.4 °C
COc1ccc(C=C2N=C3C(=O)NCCN3C2=O)cc1 [JL 06.1] | 0.1 °C
CN1C(=O)C(=Cc2ccc(O)cc2)N=C1C=Cc1ccncc1 [ccA 9] | 0.3 °C
CC1=NC(=Cc2c[nH]c3cccc(C)c23)C(=O)N1C [M 1974] | 0 °C
COc1cc(/C=C2N=C(/C=C/c3ccncc3)N(C)C\2=O)c(OC)cc1O [N 1048] | 1.5 °C
CC1=NC(=Cc2ccncc2)C(=O)N1C [M 1998] | -0.4 °C
CCOC(=O)CN1C(=O)C(=Cc2cc3c4c(c2)CCCN4CCC3)N=C1C [M 1343] | 0 °C
CNC(=O)c1cc(C=C2N=C(C=Cc3cc(Br)c(O)c(Br)c3)N(C)C2=O)ccc1O [ccD 2] | 0.2 °C
CCCC1=NC(=CN(C)C)C(=O)N1C [M 1945.1] | -0.6 °C
CN(C)C=CC1=NC(=C(N)c2ccccc2)C(=O)N1C [ZS 182] | 0 °C
CNC(=O)C(N)C(O)c1ccc(OCc2ccccc2)cc1 (stereo not shown) [X 27] | -0.1 °C
CC1=NC(=Cc2ccc(C(=O)O)cc2)C(=O)N1C [AI 89] | -0.5 °C
O=C1NC(=S)SC1=Cc1cc(F)c(O)c(F)c1 [SAI 118] | 0 °C
COc1cc(C=C2SC(=S)NC2=O)c(OC)cc1O [SAI 115] | -0.3 °C
CN1C(=O)C(=Cc2ccc(O)cc2)N=C1C=Cc1ccc(C(=O)O)cc1 [ccA 16] | 0.8 °C
CC1=NC(=Cc2ccc(C)o2)C(=O)N1C [N 1020] | -0.2 °C
COc1ccc(C=C2N=C(C)N(CCNC(=O)OC(C)(C)C)C2=O)cc1 [M 2022b] | 0 °C
CCC1=NC(=Cc2ccc(O[Si](c3ccccc3)(c3ccccc3)C(C)(C)C)cc2)C(=O)N1C [M 1557] | -0.1 °C
CNC(=O)C(=Cc1ccccc1)N=P(c1ccccc1)(c1ccccc1)c1ccccc1 [N 832] | -0.5 °C
